Assay results taken from patent US20150119388A1, “NOVEL PRO- AND CODRUG DERIVATIVES FOR NANOPARTICLE DELIVERY OF SELECT ANTICANCER AGENTS FORMED USING RAPIDLY CLEAVABLE PHENOLIC ESTER BRIDGES” (THE CHILDREN'S HOSPITAL OF PHILADELPHIA, priority 2012, published 2015).

Experiments:
carboxylesterase = details: carboxylesterase-mediated; rest eliminated through alternative pathways; cited from earlier work
[1] = system: SY5Y-TrkB human neuroblastoma cells; test: Tumor growth inhibition in the murine xenograft model of neuroblastoma; format: in vivo, athymic nu/nu mice; details: three weeks
Method: For xenograft studies, athymic nu/nu mice (nine animals per group) were injected in the flank with 10^7 SY5Y-TrkB human neuroblastoma cells in 0.3 mL […]™ matrix (BD Biosciences, Franklin Lakes, N.J.). Treatment was started when the average SY5Y-TrkB tumor size was 0.2 cm^3. Nanoparticles were administered intravenously through the tail vein twice a week at a dose equivalent to 10 mg/kg of SN-38 per injection for comparison against a ‘no treatment’ control and a clinically used irinotecan formulation (CAMPTOSAR®, Pfizer, given orally five times a week at a therapeutically relevant dose of 10 mg/kg as described in Thompson J. et al., Efficacy of oral irinotecan against neuroblastoma xenografts, Anticancer Drugs. 1997 April; 8(4):313-22). Tumor size in each group was measured daily over a period of three weeks. […] The error bars in FIG. 2A represent standard deviations.
Tumor growth inhibition by PLA-PEG nanoparticles loaded with an SN-38 conjugate with tocopherol succinate (made according to Example 7) was administered over 4 weeks at indicated dose regimens (each injection equivalent to 10 mg SN-38/kg) to animals xenografted as in Example 8. The effect is shown in comparison to irinotecan administered 5 times a week for 4 weeks at the same dose per injection. Animals were sacrificed after their tumors reached 3 cm^3. […]

SMILES: CCc1c2c(nc3ccc(OC(=O)N4CCC(N5CCCCC5)CC4)cc13)-c1cc3c(c(=O)n1C2)COC(=O)[C@]3(O)CC [irinotecan]
- rate of conversion to the pharmacologically active SN-38 (carboxylesterase): less than 10%
- efficacy on tumor size (FIG. 2A) ([1]; CAMPTOSAR given orally five times a week at 10 mg/kg (50 mg/kg per week)): showed efficacy vs. ‘no treatment’ control
- animal survival (FIG. 2B) ([1]; CAMPTOSAR given orally five times a week at 10 mg/kg, vs 'no treatment' control): significantly improved animal survival compared with the control group
